± gives the uncertainty stated by the source.
Test: xn = mol fraction of the nth substance listed

O=C([O-])[O-].[Na+].[Na+] + CCCCCCCCCCCC[N+](C)(C)C.[Br-] + O
298.15 K, 101 kPa
Conditions | electrical conductivity [S/m]
x1 = 0.0001801, x2 = 7.809e-05 | 0.2221 ± 0.0004
x1 = 0.0001801, x2 = 8.963e-05 | 0.2267 ± 0.0005
x1 = 0.0001801, x2 = 0.000101 | 0.2313 ± 0.0005
x1 = 0.0001801, x2 = 0.0001125 | 0.2359 ± 0.0005
x1 = 0.0001801, x2 = 0.0001241 | 0.2404 ± 0.0005
x1 = 0.0001801, x2 = 0.0001356 | 0.2449 ± 0.0005
x1 = 0.0001801, x2 = 0.0001466 | 0.2493 ± 0.0005
x1 = 0.0001801, x2 = 0.000158 | 0.2537 ± 0.0005
x1 = 0.0001801, x2 = 0.000169 | 0.2579 ± 0.0005
x1 = 0.0001801, x2 = 0.00018 | 0.2622 ± 0.0005
x1 = 0.0001801, x2 = 0.0001908 | 0.2663 ± 0.0005
x1 = 0.0001801, x2 = 0.0002018 | 0.2705 ± 0.0005
x1 = 0.0001801, x2 = 0.0002126 | 0.2745 ± 0.0006
x1 = 0.0001801, x2 = 0.0002234 | 0.278 ± 0.0006
x1 = 0.0001801, x2 = 0.000234 | 0.2806 ± 0.0006
x1 = 0.0001801, x2 = 0.0002447 | 0.2825 ± 0.0006
x1 = 0.0001801, x2 = 0.0002551 | 0.2841 ± 0.0006
x1 = 0.0001801, x2 = 0.0002658 | 0.2855 ± 0.0006
x1 = 0.0001801, x2 = 0.0002762 | 0.2868 ± 0.0006
x1 = 0.0001801, x2 = 0.0002867 | 0.288 ± 0.0006
x1 = 0.0001801, x2 = 0.0002986 | 0.2893 ± 0.0006
x1 = 0.0001801, x2 = 0.0003116 | 0.2908 ± 0.0006
x1 = 0.0001801, x2 = 0.000342 | 0.2939 ± 0.0006
x1 = 0.0001802, x2 = 0 | 0.1927 ± 0.0004
x1 = 0.0001802, x2 = 2.16e-06 | 0.1931 ± 0.0004
x1 = 0.0001802, x2 = 4.51e-06 | 0.1938 ± 0.0004
x1 = 0.0001802, x2 = 7.94e-06 | 0.1951 ± 0.0004
x1 = 0.0001802, x2 = 1.154e-05 | 0.1963 ± 0.0004
x1 = 0.0001802, x2 = 1.659e-05 | 0.1981 ± 0.0004
x1 = 0.0001802, x2 = 2.309e-05 | 0.2004 ± 0.0004
x1 = 0.0001802, x2 = 3.174e-05 | 0.2037 ± 0.0004
x1 = 0.0001802, x2 = 4.31e-05 | 0.2082 ± 0.0004
x1 = 0.0001802, x2 = 5.483e-05 | 0.2128 ± 0.0004
x1 = 0.0001802, x2 = 6.655e-05 | 0.2175 ± 0.0004
x1 = 0.001798, x2 = 0.0001498 | 1.359 ± 0.0027
x1 = 0.001798, x2 = 0.0001618 | 1.363 ± 0.0027
x1 = 0.001798, x2 = 0.0001776 | 1.367 ± 0.0027
x1 = 0.001798, x2 = 0.0001934 | 1.371 ± 0.0027
x1 = 0.001798, x2 = 0.000209 | 1.374 ± 0.0027
x1 = 0.001798, x2 = 0.0002246 | 1.377 ± 0.0028
x1 = 0.001798, x2 = 0.0002401 | 1.38 ± 0.0028
x1 = 0.001798, x2 = 0.0002555 | 1.383 ± 0.0028
x1 = 0.001798, x2 = 0.0002702 | 1.386 ± 0.0028
x1 = 0.001798, x2 = 0.0002851 | 1.389 ± 0.0028
x1 = 0.001798, x2 = 0.0003037 | 1.393 ± 0.0028
x1 = 0.001798, x2 = 0.0003216 | 1.396 ± 0.0028
x1 = 0.001798, x2 = 0.0003394 | 1.399 ± 0.0028
x1 = 0.001798, x2 = 0.0003576 | 1.402 ± 0.0028
x1 = 0.001798, x2 = 0.0003752 | 1.405 ± 0.0028
x1 = 0.001798, x2 = 0.0003925 | 1.408 ± 0.0028
x1 = 0.001799, x2 = 0 | 1.335 ± 0.0027
x1 = 0.001799, x2 = 8.18e-06 | 1.333 ± 0.0027
x1 = 0.001799, x2 = 1.563e-05 | 1.333 ± 0.0027
x1 = 0.001799, x2 = 2.381e-05 | 1.333 ± 0.0027
x1 = 0.001799, x2 = 3.217e-05 | 1.333 ± 0.0027
x1 = 0.001799, x2 = 4.072e-05 | 1.334 ± 0.0027
x1 = 0.001799, x2 = 5.126e-05 | 1.335 ± 0.0027
x1 = 0.001799, x2 = 6.398e-05 | 1.338 ± 0.0027
x1 = 0.001799, x2 = 7.671e-05 | 1.34 ± 0.0027
x1 = 0.001799, x2 = 8.888e-05 | 1.343 ± 0.0027
x1 = 0.001799, x2 = 0.0001014 | 1.346 ± 0.0027
x1 = 0.001799, x2 = 0.0001138 | 1.349 ± 0.0027
x1 = 0.001799, x2 = 0.000126 | 1.352 ± 0.0027
x1 = 0.001799, x2 = 0.0001379 | 1.355 ± 0.0027

CC1COC(=O)O1 (stereo unspecified) + CC[N+](CC)(CC)CC.F[B-](F)(F)F
101 kPa, x1 = 1
Conditions | viscosity [mPa·s]
283.15 K | 3.551 ± 0.051
298.15 K | 2.531 ± 0.037
308.15 K | 2.09 ± 0.031
313.15 K | 1.918 ± 0.029

O + CCCCCCCCCCCCCCCC[n+]1ccccc1.O=C([O-])C(O)c1ccccc1 + CC(C)[C@H](N)C(=O)O
101 kPa, x2 = 0, x3 = 0
Conditions | electrical conductivity [S/m]
293.15 K | 0.00012
298.15 K | 0.00015
303.15 K | 0.00016
308.15 K | 0.00017
313.15 K | 0.00019

O=C1CCCCCN1 + CCCC[N+](CCCC)(CCCC)CCCC.[Cl-] + O
electrical conductivity [S/m], 101 kPa
Conditions | x1 = 0.0018, x2 = 0.0018 | x1 = 0.0197, x2 = 0.0197 | x1 = 0.0481, x2 = 0.0481 | x1 = 0.0862, x2 = 0.0862 | x1 = 0.146, x2 = 0.146
293.15 K | – | 0.798 ± 0.008 | – | – | 0.593 ± 0.006
295.65 K | – | 0.788 ± 0.0079 | – | – | 0.6211 ± 0.0062
298.15 K | – | 0.778 ± 0.0078 | 0.799 ± 0.008 | 0.775 ± 0.0078 | 0.639 ± 0.0064
300.65 K | – | 0.769 ± 0.0077 | 0.8 ± 0.008 | 0.7743 ± 0.0077 | 0.6505 ± 0.0065
303.15 K | – | 0.768 ± 0.0077 | 0.795 ± 0.008 | 0.778 ± 0.0078 | 0.659 ± 0.0066
305.65 K | – | 0.767 ± 0.0077 | 0.788 ± 0.0079 | 0.775 ± 0.0078 | 0.667 ± 0.0067
308.15 K | 0.219 ± 0.0065 | 0.767 ± 0.0098 | 0.7825 ± 0.0078 | 0.7733 ± 0.0077 | 0.677 ± 0.0068
310.65 K | 0.219 ± 0.0065 | 0.763 ± 0.0098 | 0.779 ± 0.0078 | 0.768 ± 0.0077 | 0.686 ± 0.0069
313.15 K | 0.221 ± 0.0064 | 0.758 ± 0.0097 | 0.776 ± 0.0078 | 0.7623 ± 0.0076 | 0.6923 ± 0.0069
315.65 K | 0.222 ± 0.0063 | 0.753 ± 0.0096 | 0.77 ± 0.0077 | 0.757 ± 0.0076 | 0.695 ± 0.007
318.15 K | 0.222 ± 0.0062 | 0.744 ± 0.0095 | 0.7621 ± 0.0076 | 0.7513 ± 0.0075 | 0.699 ± 0.007
320.65 K | 0.223 ± 0.0061 | 0.735 ± 0.0093 | 0.7545 ± 0.0075 | 0.7434 ± 0.0074 | 0.699 ± 0.007
323.15 K | 0.223 ± 0.006 | 0.725 ± 0.0092 | 0.746 ± 0.0075 | 0.736 ± 0.0074 | 0.698 ± 0.007
325.65 K | 0.224 ± 0.0059 | 0.716 ± 0.009 | 0.737 ± 0.0074 | 0.727 ± 0.0073 | 0.697 ± 0.007
328.15 K | 0.224 ± 0.0058 | 0.704 ± 0.0089 | – | 0.719 ± 0.0072 | 0.6938 ± 0.0069
330.65 K | 0.224 ± 0.0057 | 0.693 ± 0.0087 | – | 0.7105 ± 0.0071 | 0.687 ± 0.0069
333.15 K | 0.225 ± 0.0056 | 0.681 ± 0.0085 | – | 0.7023 ± 0.007 | 0.6811 ± 0.0068

CC1COC(=O)O1 (stereo unspecified) + CCCC[n+]1ccn(C)c1.O=S(=O)([N-]S(=O)(=O)C(F)(F)F)C(F)(F)F
101.3 kPa
Conditions | viscosity [mPa·s]
293.15 K, x2 = 0.8776 | 51 ± 1.1
298.15 K, x2 = 0.1013 | 4.029 ± 0.085
298.15 K, x2 = 0.7 | 28.89 ± 0.6
303.15 K, x2 = 0.8079 | 29.79 ± 0.62
303.15 K, x2 = 0.8776 | 33.75 ± 0.71
308.15 K, x2 = 0.1013 | 3.249 ± 0.068
308.15 K, x2 = 0.1557 | 4.102 ± 0.086
308.15 K, x2 = 0.4128 | 9.65 ± 0.2
308.15 K, x2 = 0.5045 | 12.33 ± 0.26
313.15 K, x2 = 0.5045 | 10.67 ± 0.22
318.15 K, x2 = 0.7 | 15.35 ± 0.32
323.15 K, x2 = 0.7 | 13.28 ± 0.28
333.15 K, x2 = 0.8776 | 13.61 ± 0.28
338.15 K, x2 = 0.3071 | 3.659 ± 0.077
348.15 K, x2 = 0 | 1.14 ± 0.024
348.15 K, x2 = 0.1557 | 2.025 ± 0.043

Source: the CheMixHub ionic liquid set
